Laboratory results published in patent US4467104A, “Esters of 2-(2-chlorocarbonyl)-2-(2,3-dihydro-2-alkylbenzofuran-7-yl)-hydrazinecar boxylic acid” (Shell Oil Company, priority 1982, dated 1984).

Legend:
Type in all cases: in vivo
[1] = test system: Corn earworm larvae (Heliothis zea (Boddie)); experiment: Corn earworm larvae test on sprayed broad bean plant (44-46 hours); conditions: concentration by weight in the formulation
Procedure: V. Corn earworm larvae (Heliothis zea (Boddie)) were tested by spraying a broad bean plant with dilutions of an acetone solution of the test compound in water containing an emulsifier. Immediately after spraying, 5 larvae were transferred to the plant and held for 44-46 hours, at which time the dead and moribund larvae were counted. The tests were conducted employing several different dosage rates for each test compound.
(§1) In the case of each species of insect, the concentration of the test compound by weight in the formulation required to kill fifty percent of the test insects--i.e., the LC50 dosage--was determined.

[2] = test system: Adult female two-spotted mites (Tetranychus urticae (Koch)); experiment: Two-spotted spider mite test on sprayed pinto bean leaves (about 20 hours); conditions: concentration by weight in the formulation
Procedure: III. Adult female two-spotted mites (Tetranychus urticae (Koch) was tested by placing 50-75 mites on the bottom side of leaves of pinto bean plants. The leaves were sprayed with dilutions of an acetone solution of the test compound in water containing an emulsifier and kept under laboratory conditions for about 20 hours, at which time mortality counts were made. The tests were conducted employing several different dosage rates for each test compound.
as §1

[3] = test system: Mosquito larvae (Anopheles albimanus (Weide)); experiment: Mosquito larvae test in water (mortality after 18-22 hours); conditions: in distilled water
Procedure: IV. Mosquito larvae (Anopheles albimanus (Weide)) were tested by placing 10 living and active mosquito larvae in a jar containing a 0.1 ml aliquot of a 1% acetone solution of the test compound thoroughly mixed with 100 ml of distilled water. After 18-22 hours, mortality counts were taken. Both dead and moribund larvae were counted as dead. […] The tests were conducted employing several different dosage rates for each compound.
as §1

[4] = test system: Pea aphids (Acyrthosiphon pisum (Harris)); experiment: Pea aphid test on sprayed broad bean plants (living aphids counted at 18 to 20 hours); conditions: concentration by weight in the formulation
Procedure: II. Pea aphids (Acyrthosiphon pisum (Harris)) were tested by placing about 100 aphids on broad bean plants. The plants were sprayed with dilutions of an acetone solution of the test compound in water containing an emulsifier and held in containers under laboratory conditions for 18 to 20 hours, at which time the living aphids in the containers were counted. The tests were conducted employing several different dosage rates for each test compound.
as §1

[5] = test system: Houseflies (Musca domestica (Linne)); experiment: Housefly spray test (mortality after 18-20 hours); conditions: concentration by weight in the formulation
Procedure: I. Houseflies (Musca domestica (Linne)) were tested by placing 50 4- to 5-day old housflies into a spray cage and spraying with 0.6 ml of a solution of test compound. After spraying, the flies were anesthetized with CO2 and transferred to a recovery cage containing a milk pad for food. The cages were held for 18-20 hours after which mortality counts were made. Both dead and moribund flies were counted. The tests were conducted employing several different dosage rates for each test compound.
as §1

Compound	LC50 Corn Earworm [1] [% w]	LC50 Spider mite [2] [% w]	LC50 Mosquito Larvae [3] [ppm]	LC50 Pea Aphid [4] [% w]	LC50 Housefly [5] [% w]
COC(=O)NN(C(=O)Cl)c1cccc2c1OC(C)(C)C2 [Compound 1, 2-(2-chlorocarbonyl)-2-(2,3-dihydro-2,2-dimethylbenzofuran-7-yl)hydrazinecarboxlic acid methyl ester]	0.043	> 0.02	0.016	0.00008	> 0.5
CCOC(=O)NN(C(=O)Cl)c1cccc2c1OC(C)(C)C2 [Compound 2, 2-(2-chlorocarbonyl)-2-(2,3-dihydro-2,2-dimethyl-benzofuran-7-yl)hydrazinecarboxylic acid ethyl ester]	0.1	> 0.2	> 0.1	0.0003	> 0.5
COC(=O)NN(C(=O)Cl)c1ccc(C)c2c1OC(C)(C)C2 [Compound 4, 2-(2-chlorocarbonyl)-2-(2,3-dihydro-2,2,4-trimethylbenzofuran-7-yl)hydrazinecarboxylic acid methyl ester]	0.033	> 0.2	0.02	0.0002	> 0.5
COC(=O)NN(C(=O)Cl)c1cccc2c1OC(C)C2 (centres unmarked) [Compound 5, 2-(2-chlorocarbony)-2-(2,3-dihydro-2-methylbenzofuran-7-yl)-hydrazinecarboxylic acid methyl ester]	0.057	> 0.2	0.039	0.0005	> 0.5
